Experimental data published in ChEMBL document CHEMBL2331130, “Synthesis and antibacterial activity of 9-oxime ether non-ketolides, and novel binding mode of alkylides with bacterial rRNA” (2013).
≈ marks a conversion by molar mass, not a printed value.

How the values were obtained:
Assay type in all cases: functional
[1] = system: Streptococcus pneumoniae; assay: Antibacterial activity against penicillin-susceptible Streptococcus pneumoniae PU09 harboring mef gene by broth microdilution method
[2] = system: Staphylococcus aureus; assay: Ratio of telithromycin MIC to compound MIC for methicillin-resistant, […], MLS-resistant (constitutive) Staphylococcus aureus PU 19 by broth microdilution method
[3] = system: Staphylococcus aureus; assay: Antibacterial activity against erythromycin-susceptible Staphylococcus aureus ATCC 29213 by broth microdilution method
[4] = system: Streptococcus pyogenes; assay: Antibacterial activity against erythromycin-susceptible Streptococcus pyogenes A3 by broth microdilution method
[5] = system: Streptococcus pneumoniae; assay: Antibacterial activity against MLS-resistant (constitutive), penicillin-resistant Streptococcus pneumoniae PU11 by broth microdilution method
[6] = system: Staphylococcus epidermidis; assay: Antibacterial activity against methicillin-resistant, coagulase-negative, MLS-resistant (inducible) Staphylococcus epidermidis E3 by broth microdilution method
[7] = system: Streptococcus pneumoniae; assay: Antibacterial activity against erythromycin-susceptible Streptococcus pneumoniae ATCC 49619 by broth microdilution method
[8] = system: Streptococcus dysgalactiae; assay: Ratio of telithromycin MIC to compound MIC for erythromycin-resistant Streptococcus dysgalactiae A1 by broth microdilution method
[9] = system: Staphylococcus epidermidis; assay: Antibacterial activity against methicillin-resistant, MLS-resistant (constitutive) Staphylococcus epidermidis E2 by broth microdilution method
[10] = system: Staphylococcus aureus; assay: Antibacterial activity against methicillin-resistant, MLS-resistant (inducible) Staphylococcus aureus PU 32 by broth microdilution method
[11] = system: Streptococcus dysgalactiae; assay: Antibacterial activity against erythromycin-resistant Streptococcus dysgalactiae A1 by broth microdilution method
[12] = system: Streptococcus pyogenes; assay: Ratio of telithromycin MIC to compound MIC for MLS-resistant (constitutive) Streptococcus pyogenes A2 by broth microdilution method
[13] = system: Staphylococcus epidermidis; assay: Antibacterial activity against methicillin-susceptible, MLS-resistant (inducible) Staphylococcus epidermidis E1 by broth microdilution method
[14] = system: Staphylococcus aureus; assay: Antibacterial activity against methicillin-resistant, […], MLS-resistant (constitutive) Staphylococcus aureus PU 19 by broth microdilution method
[15] = system: Staphylococcus epidermidis; assay: Ratio of telithromycin MIC to compound MIC for methicillin-resistant, coagulase-negative, MLS-resistant (inducible) Staphylococcus epidermidis E3 by broth microdilution method
[16] = system: Streptococcus pyogenes; assay: Antibacterial activity against MLS-resistant (constitutive) Streptococcus pyogenes A2 by broth microdilution method
[17] = system: Staphylococcus aureus; assay: Antibacterial activity against methicillin-resistant, MLS-resistant (constitutive) Staphylococcus aureus PU 20 by broth microdilution method
[18] = system: Staphylococcus aureus; assay: Antibacterial activity against methicillin-susceptible, MLS-resistant (inducible) Staphylococcus aureus PU 64 by broth microdilution method
[19] = system: Streptococcus pneumoniae; assay: Antibacterial activity against MLS-resistant (constitutive), penicillin-susceptible Streptococcus pneumoniae PU27 by broth microdilution method

Row | Structure (SMILES) | MIC [1] [µg/mL] | Ratio [2] | MIC [3] [µg/mL] | MIC [4] [µg/mL] | MIC [5] [µg/mL] | MIC [6] [µg/mL] | MIC [7] [µg/mL] | Ratio [8] | MIC [9] [µg/mL] | MIC [10] [µg/mL] | MIC [11] [µg/mL] | Ratio [12] | MIC [13] [µg/mL] | MIC [14] [µg/mL] | Ratio [15] | MIC [16] [µg/mL] | MIC [17] [µg/mL] | MIC [18] [µg/mL] | MIC [19] [µg/mL]
1 | CC[C@H]1OC(=O)[C@H](C)C(=O)[C@H](C)[C@@H](O[C@@H]2O[C@H](C)C[C@H](N(C)C)[C@H]2O)[C@](C)(OC)C[C@@H](C)/C(=N\OC/C=C/c2cnc3ccccc3c2)[C@H](C)[C@H]2OC(=O)O[C@@]21C | 1 (≈ 1.26 µM) | 4 | 0.5 (≈ 0.628 µM) | 0.032 (≈ 0.0402 µM) | 64 (≈ 80.4 µM) | 2 (≈ 2.51 µM) | 0.125 (≈ 0.157 µM) | 4 | 128 (≈ 161 µM) | 1 (≈ 1.26 µM) | 0.5 (≈ 0.628 µM) | 4 | 8 (≈ 10.1 µM) | 64 (≈ 80.4 µM) | 4 | 32 (≈ 40.2 µM) | – | – | –
2 | CC[C@H]1OC(=O)[C@H](C)C(=O)[C@H](C)[C@@H](O[C@@H]2O[C@H](C)C[C@H](N(C)C)[C@H]2O)[C@](C)(OC)C[C@@H](C)/C(=N\OC/C=C/c2ccc(-c3ccccn3)s2)[C@H](C)[C@H]2OC(=O)O[C@@]21C | 4 (≈ 4.83 µM) | – | 8 (≈ 9.66 µM) | 0.5 (≈ 0.604 µM) | 64 (≈ 77.3 µM) | 64 (≈ 77.3 µM) | 0.5 (≈ 0.604 µM) | – | > 256 | 8 (≈ 9.66 µM) | 4 (≈ 4.83 µM) | – | 32 (≈ 38.6 µM) | 128 (≈ 155 µM) | – | 64 (≈ 77.3 µM) | – | – | –
3 | CC[C@H]1OC(=O)[C@H](C)C(=O)[C@H](C)[C@@H](O[C@@H]2O[C@H](C)C[C@H](N(C)C)[C@H]2O)[C@](C)(OC)C[C@@H](C)/C(=N\OC/C=C/c2ccc(C(=O)c3ccccc3)s2)[C@H](C)[C@H]2OC(=O)O[C@@]21C | 4 (≈ 4.68 µM) | – | 16 (≈ 18.7 µM) | 2 (≈ 2.34 µM) | 64 (≈ 74.8 µM) | 64 (≈ 74.8 µM) | 2 (≈ 2.34 µM) | – | > 256 | 16 (≈ 18.7 µM) | 4 (≈ 4.68 µM) | – | 32 (≈ 37.4 µM) | > 256 | – | 64 (≈ 74.8 µM) | – | – | –
4 | CC[C@H]1OC(=O)[C@H](C)C(=O)[C@H](C)[C@@H](O[C@@H]2O[C@H](C)C[C@H](N(C)C)[C@H]2O)[C@](C)(OC)C[C@@H](C)/C(=N\OC/C=C/c2ccc(-c3cccs3)cc2)[C@H](C)[C@H]2OC(=O)O[C@@]21C | 16 (≈ 19.3 µM) | – | 32 (≈ 38.7 µM) | 1 (≈ 1.21 µM) | 64 (≈ 77.4 µM) | 64 (≈ 77.4 µM) | 2 (≈ 2.42 µM) | – | 256 (≈ 310 µM) | 64 (≈ 77.4 µM) | 16 (≈ 19.3 µM) | – | 64 (≈ 77.4 µM) | 64 (≈ 77.4 µM) | – | 32 (≈ 38.7 µM) | – | – | –
5 | CC[C@H]1OC(=O)[C@H](C)[C@@H](O/C=C\Cc2cncnc2)[C@H](C)[C@@H](O[C@@H]2O[C@H](C)C[C@H](N(C)C)[C@H]2O)[C@](C)(OC)C[C@@H](C)/C(=N\OC/C=C/c2cnc3ccccc3c2)[C@H](C)[C@H]2OC(=O)O[C@@]21C | 32 (≈ 34.9 µM) | – | 32 (≈ 34.9 µM) | 2 (≈ 2.18 µM) | 128 (≈ 140 µM) | > 256 | 2 (≈ 2.18 µM) | – | > 256 | > 256 | 16 (≈ 17.5 µM) | – | > 256 | > 256 | – | 64 (≈ 69.9 µM) | > 256 | 32 (≈ 34.9 µM) | 64 (≈ 69.9 µM)
6 | CC[C@H]1OC(=O)[C@H](C)[C@@H](O)[C@H](C)[C@@H](O[C@@H]2O[C@H](C)C[C@H](N(C)C)[C@H]2O)[C@](C)(OC)C[C@@H](C)/C(=N\OC/C=C/c2cnc3ccccc3c2)[C@H](C)[C@H]2OC(=O)O[C@@]21C | 4 (≈ 5.01 µM) | – | 128 (≈ 160 µM) | 8 (≈ 10 µM) | 64 (≈ 80.2 µM) | > 256 | 4 (≈ 5.01 µM) | – | > 256 | 128 (≈ 160 µM) | 16 (≈ 20.1 µM) | – | 128 (≈ 160 µM) | > 256 | – | 64 (≈ 80.2 µM) | > 256 | 256 (≈ 321 µM) | 64 (≈ 80.2 µM)
7 | CC[C@H]1OC(=O)[C@H](C)[C@@H](O)[C@H](C)[C@@H](O[C@@H]2O[C@H](C)C[C@H](N(C)C)[C@H]2O)[C@](C)(OC)C[C@@H](C)/C(=N\OCCCc2cncc3ccccc23)[C@H](C)[C@H]2OC(=O)O[C@@]21C | 8 (≈ 10 µM) | – | > 256 | 4 (≈ 5 µM) | 32 (≈ 40 µM) | > 256 | 8 (≈ 10 µM) | – | > 256 | > 256 | 16 (≈ 20 µM) | – | > 256 | > 256 | – | 32 (≈ 40 µM) | > 256 | 256 (≈ 320 µM) | 32 (≈ 40 µM)
